Data taken from patent publication US6710060B2, “4-hydroxypiperidine derivatives having antiarrhythmic activity” (Mochida Pharmaceutical Co., Ltd., priority 1999, dated 2004).
Where a name gives a salt, the structure may show the parent alone.

For `CCCCOc1ccc(N(C)CCC2(O)CCN(Cc3ccc4c(c3)OCO4)CC2)cc1` (as salt: hydrochloride) [Example 162, 4-[2-[N-(4-n-butoxyphenyl)-N-methylamino]ethyl]-1-(3,4-methylenedioxyphenylmethyl)piperidin-4-ol dihydrochloride], the melting point was 211 °C (dec.).
With `CCCCOc1ccc(N(C)CCC2(O)CCN(CCc3ccc(F)cc3)CC2)cc1` (as salt: hydrochloride) [Example 176, 4-[2-[N-(4-n-butoxyphenyl)-N-methylamino]ethyl]-1-[2-(4-fluorophenyl)ethyl]piperidin-4-ol dihydrochloride] the melting point was 207 °C (dec.).
With `CCCCOc1ccc(N(C)CCC2(O)CCN(Cc3ccc(F)cc3)CC2)cc1` (as salt: hydrochloride) [Example 177, 4-[2-[N-(4-n-butoxyphenyl)-N-methylamino]ethyl]-1(4-fluorophenylmethyl)piperidin-4-ol dihydrochloride] the melting point was 209 °C (dec.).
For `CCCCOc1ccc(N(C)CCC2(O)CCN(CCc3ccc(F)cc3F)CC2)cc1` (as salt: hydrochloride) [Example 183, 4-[2-[N-(4-n-butoxyphenyl)-N-methylamino]ethyl]-1-[2-(2,4-difluorophenyl)ethyl]piperidin-4-ol dihydrochloride], the melting point was 209 °C (dec.).
For `CCCCOc1ccc(N(C)CCC2(OC)CCN(Cc3ccccc3)CC2)cc1` (as salt: hydrochloride) [Example 201, 1-benzyl-4-methoxy-4-[2-[N-(4-n-butoxyphenyl)-N-methylamino]ethyl]piperidine dihydrochloride], the melting point was 215 °C (dec.).

First: CCCCOc1ccc(N(C)CC(O)C2(O)CCN(CCc3ccc(F)cc3)CC2)cc1 (centres unmarked) (as salt: hydrochloride) [Example 196, 4-[2-[N-(4-n-butoxyphenyl)-N-methylamino]-1-hydroxyethyl]-1-[2-(4-fluorophenyl)ethyl]piperidin-4-ol dihydrochloride]
Second: CCCCOc1ccc(N(CCC2(O)CCN(CCc3ccc(F)cc3)CC2)C(C)=O)cc1 [Example 57, 4-[2-[N-acetyl-N-(4-n-butoxyphenyl)amino]ethyl]-1-[2-(4-fluorophenyl)ethyl]piperidin-4-ol]
The melting point of the first is higher: 191.2 to 198.7 °C for the first, 121.6 to 122.1 °C for the second.

First: CCCCOc1ccc(N(C)CCC2(O)CCN(CC(O)c3ccc(F)cc3)CC2)cc1 (centres unmarked) (as salt: hydrochloride) [Example 198, 4-[2-[N-(4-n-butoxyphenyl)-N-methylamino]ethyl]-1-[2-(4-fluorophenyl)-2-hydroxyethyl]piperidin-4-ol dihydrochloride]
Second: CCCCOc1ccc(N(C)CCC2(O)CCN(CC(O)c3ccccc3)CC2)cc1 (centres unmarked) [Example 54, 4-[2-[N-(4-n-butoxyphenyl)-N-methylamino]-ethyl]-1-(2-phenyl-2-hydroxyethyl)piperidin-4-ol]
The melting point of the first is higher: 174.9 to 184.5 °C for the first, 104 to 104.8 °C for the second.

First: CC(C)Oc1ccc(N(C)CCC2(O)CCN(Cc3ccc(Br)cc3)CC2)cc1 (as salt: hydrochloride) [Example 220, 1-(4-bromophenylmethyl)-4-[2-[N-methyl-N-(4-isopropoxyphenyl)amino]ethyl]piperidin-4-ol dihydrochloride]
Second: CC(C)Oc1ccc(N(C)CCC2(O)CCN(Cc3ccc(F)cc3)CC2)cc1 [Example 78, 1-(4-fluorophenylmethyl)-4-[2-[N-methyl-N-(4-isopropoxyphenyl)amino]ethyl]piperidin-4-ol]
The melting point of the first is higher: 224.4 to 226.2 °C for the first, 69.2 to 70 °C for the second.

Compared with `CC(C)Oc1ccc(N(C)CCC2(O)CCN(Cc3ccc(C(F)(F)F)cc3)CC2)cc1` (as salt: hydrochloride) [Example 221, 4-[2-[N-methyl-N-(4-isopropoxyphenyl)amino]ethyl]-1-[4-(trifluoromethyl)phenylmethyl]piperidin-4-ol dihydrochloride], `CC(C)Oc1ccc(N(C)CCC2(O)CCN(Cc3ccc(OC(F)(F)F)cc3)CC2)cc1` (as salt: hydrochloride) [Example 236, 4-[2-[N-methyl-N-(4-isopropoxyphenyl)amino]ethyl]-1-(4-trifluoromethoxyphenylmethyl)piperidin-4-ol dihydrochloride] is lower in melting point: 241.2 to 242.6 °C for the first, 233.2 to 234.9 °C for the second.

First: CC(C)Oc1ccc(N(C)CCC2(O)CCN(Cc3ccc(C#N)cc3)CC2)cc1 (as salt: hydrochloride) [Example 226, 1-(4-cyanophenylmethyl)-4-[2-[N-methyl-N-(4-isopropoxyphenyl)amino]ethyl]piperidin-4-ol dihydrochloride]
Second: CC(C)Oc1ccc(N(C)CCC2(O)CCN(Cc3ccc(Br)cc3)CC2)cc1 [Example 73, 1-(4-bromophenylmethyl)-4-[2-[N-methyl-N-(4-isopropoxyphenyl)amino]ethyl]piperidin-4-ol]
The melting point of the first is higher: 220.8 to 222.2 °C for the first, 104.3 to 105 °C for the second.

Compared with `CC(C)Oc1ccc(N(C)CCC2(O)CCN(Cc3ccc(Br)cc3F)CC2)cc1` (as salt: hydrochloride) [Example 240, 1-(4-bromo-2-fluorophenylmethyl)-4-[2-[N-methyl-N-(4-isopropoxyphenyl)amino]ethyl]piperidin-4-ol dihydrochloride], `CC(C)Oc1ccc(N(C)CCC2(O)CCN(Cc3cccs3)CC2)cc1` (as salt: hydrochloride) [Example 254, 4-[2-[N-methyl-N-(4-isopropoxyphenyl)amino]ethyl]-1(2-thienylmethyl)piperidin-4-ol dihydrochloride] is lower in melting point: 228.3 to 229.1 °C for the first, 216.5 to 217.5 °C for the second.

Compared with `CCCCCOc1ccc(N(C)CCC2(O)CCN(Cc3ccccc3)CC2)cc1` [Example 15, 1-Benzyl-4-[2-[N-methyl-N-(4-n-pentyloxyphenyl)-amino]ethyl]piperidin-4-ol], `CCCCOc1ccc(N(CCC2(O)CCN(Cc3ccccc3)CC2)C(C)=O)cc1` [Example 56, 4-[2-[N-acetyl-N-(4-n-butoxyphenyl)amino]-ethyl]-1-benzylpiperidin-4-ol] is higher in melting point: 58.5 to 60.3 °C for the first, 89.7 to 90.6 °C for the second.

First: CC(C)COc1ccc(N(C)CCC2(O)CCN(Cc3ccccc3)CC2)cc1 [Example 16, 1-Benzyl-4-[2-[N-(4-isobutoxyphenyl)-N-methylamino]-ethyl]piperidin-4-ol]
Second: CN(CCC1(O)CCN(Cc2ccccc2)CC1)c1ccc(OC2CCC2)cc1 [Example 17, 1-Benzyl-4-[2-[N-(4-cyclobutoxyphenyl)-N-methylamino]-ethyl]piperidin-4-ol]
The melting point of the first is lower: 50.6 to 52.5 °C for the first, 68.6 to 69.8 °C for the second.

First: CCCCOc1ccc(N(C)CCC2(O)CCN(Cc3ccc(Cl)cc3)CC2)cc1 [Example 20, 4-[2-[N-(4-n-butoxyphenyl)-N-methylamino]ethyl]-1-(4-chlorophenylmethyl)piperidin-4-ol]
Second: CCCCOc1ccc(N(C)CCC2(O)CCN(Cc3ccc(C)cc3)CC2)cc1 [Example 31, 4-[2-[N-(4-n-butoxyphenyl)-N-methylamino]ethyl]-1(4-methylphenylmethyl)piperidin-4-ol]
The melting point of the first is lower: 67.7 to 68.3 °C for the first, 73.3 to 75 °C for the second.

First: CCCCOc1ccc(N(C)CCC2(O)CCN(Cc3ccc(C(F)(F)F)cc3)CC2)cc1 [Example 21, 4-[2-[N-(4-n-butoxyphenyl)-N-methylamino]ethyl]-1-[4-(trifluoromethyl)phenylmethyl]piperidin-4-ol]
Second: CCCCOc1ccc(N(C)CCC2(O)CCN(Cc3ccc(C#N)cc3)CC2)cc1 [Example 22, 4-[2-[N-(4-n-butoxyphenyl)-N-methylamino]ethyl]-1(4-cyanophenylmethyl)piperidin-4-ol]
The melting point of the first is lower: 77.4 to 78.2 °C for the first, 83.5 to 85.5 °C for the second.

Compared with `CCCCOc1ccc(N(C)CCC2(O)CCN(Cc3ccc(C(=O)OC)cc3)CC2)cc1` [Example 23, 4-[2-[N-(4-n-butoxyphenyl)-N-methylamino]ethyl]-1-(4-methoxycarbonylphenylmethyl)piperidin-4-ol], `CCCCOc1ccc(N(C)CCC2(O)CCN(Cc3ccc(N(C)C)cc3)CC2)cc1` [Example 24, 4-[2-[N-(4-n-butoxyphenyl)-N-methylamino]ethyl]-1-[4-(dimethylamino)phenylmethyl]piperidin-4-ol] is lower in melting point: 82.5 to 82.8 °C for the first, 71.3 to 73 °C for the second.

Compared with `CCCCOc1ccc(N(C)CCC2(O)CCN(Cc3cccc(F)c3)CC2)cc1` [Example 29, 4-[2-[N-(4-n-butoxyphenyl)-N-methylamino]ethyl]-1-(3-fluorophenylmethyl)piperidin-4-ol], `CCCCOc1ccc(N(C)CCC2(O)CCN(Cc3ccc(F)c(F)c3)CC2)cc1` [Example 30, 4-[2-[N-(4-n-butoxyphenyl)-N-methylamino]ethyl]-1-(3,4-difluorophenylmethyl)piperidin-4-ol] is higher in melting point: 46.7 to 47.2 °C for the first, 49.8 to 50.5 °C for the second.

`CCCCOc1ccc(N(C)CCC2(O)CCN(C3Cc4ccccc4C3)CC2)cc1` [Example 32, 4-[2-[N-(4-n-butoxyphenyl)-N-methylamino]ethyl]-1-(2,3-dihydro-1H-indene-2-yl)piperidin-4-ol] and `CCCCOc1ccc(N(C)CCC2(O)CCN(CC(O)c3ccc(F)cc3)CC2)cc1` (centres unmarked) [Example 55, 4-[2-[N-(4-n-butoxyphenyl)-N-methylamino]ethyl]-1-[2-(4-fluorophenyl)-2-hydroxyethyl]piperidin-4-ol] cannot be ordered by melting point: 94.4 to 94.6 °C for the first, 92.8 to 94.5 °C for the second.

First: CC(C)Oc1ccc(N(C)CCC2(O)CCN(Cc3ccc(C(F)(F)F)cc3)CC2)cc1 [Example 74, 4-[2-[N-methyl-N-(4-isopropoxyphenyl)amino]ethyl]-1-[4-(trifluoromethyl)phenylmethyl]piperidin-4-ol]
Second: COc1ccc(CN2CCC(O)(CCN(C)c3ccc(OC(C)C)cc3)CC2)cc1 [Example 76, 1-(4-methoxyphenylmethyl)-4-[2-[N-methyl-N-(4-isopropoxyphenyl)amino]ethyl]piperidin-4-ol]
The melting point of the first is higher: 109.9 to 110.6 °C for the first, 50.8 to 52.4 °C for the second.

First: COc1cccc(CN2CCC(O)(CCN(C)c3ccc(OC(C)C)cc3)CC2)c1 [Example 77, 1-(3-methoxyphenylmethyl)-4-[2-[N-methyl-N-(4-isopropoxyphenyl)amino]ethyl]piperidin-4-ol]
Second: CC(C)Oc1ccc(N(C)CCC2(O)CCN(Cc3ccc(C#N)cc3)CC2)cc1 [Example 79, 1-(4-cyanophenylmethyl)-4-[2-[N-methyl-N-(4-isopropoxyphenyl)amino]ethyl]piperidin-4-ol]
The melting point of the first is lower: 45.1 to 46.5 °C for the first, 108.1 to 109.5 °C for the second.
